Measurements taken from US5830667A, “Human P450 IID6 cytochrome-derived peptide fragments, anti-peptide fragment antibodies, applications thereof in the diagnosis of autoimmune hepatitis” (Institut National de la Sante et de la Recherche …, priority 1991, dated 1998).
Ends that are not written are not given here.

Tests used:
[1] = tested on: anti-LKM antibodies (LKM-positive sera); experiment: ELISA test of cytochrome P450 IID6 peptides with human sera; type: binding; conditions: for number of patients whose sera recognize the peptide: tested by ELISA and immunoblotting, 15 patients
Description: The peptides are redissolved in a PBS buffer, pH 7.4 and diluted in order to obtain concentrations of 0.1, 0.2, 0.5 and 1 μg/ml; 100 μl per well of each peptide solution are incubated overnight in microtitre plates containing 96 wells (IMMULON2a commercially available ELISAPLATE, Dynatech, Poly-Labo, Paris--FRANCE). The ELISA analysis is then performed as described in GUEGUEN M. et al., (Biochem. Biophys. Res. Commun., 1989, 159, 542), using the various human sera described above. The first antibodies are tested at dilutions ranging from 1/100 to 1/12,800. The alkaline phosphatase-conjugated goat anti-human IgG antibody is used as second antibody at a dilution of 1/1000. The test is developed by adding 100 μl of p-nitrophenyl phosphate at a concentration of 1 mg/ml in a 0.05M NaCO3 buffer, pH 9.8 and 0.001M MgCl2. The results read after incubating for 30 minutes at room temperature are considered positive when they are higher by a factor of 2 compared with the control serum.

[2] = tested on: anti-LKM antibodies (LKM-positive sera); experiment: Immunoblotting of cytochrome P450 IID6 peptides with LKM-positive sera; type: binding, human
Description: (§1) The expression of the fusion proteins from the cDNA constructs is described by STANLEY (Nucleic Acids Research, 1983, 11, 4077). 100 μl culture samples, for each fusion protein, are subjected to electrophoresis on an 8-20% SDS-polyacrylamide gel, transferred onto nitrocellulose and analysed by the immunoblot technique.
(§2) The first antibodies used for the immunoblot method are:
(§3) 1) sera from patients responding positively to the anti-LKM antibodies;
(§4) Depending on the origin of the first antibody, the second antibody is either a peroxydase-goat anti-human IgG conjugate, or a peroxydase-goat anti-mouse IgG conjugate (Biosys), at a dilution of 1/1000.
The different peptides and especially peptides 254-271 (peptide of formula II) , 264-281 and 410-429 (peptide of formula X), are coupled to BSA via their free NH2 -terminal group, using glutaraldehyde (see especially E. HARLOW and D. LANE, 1988, Antibodies, A laboratory manual, Cold Spring Harbor Laboratory).

anti-LKM autoantibodies = experiment: Peptide fragments used as diagnostic reagents for autoimmune hepatitis; type: binding, human
[3] = tested on: anti-LKM antibodies (LKM-positive sera); experiment: Immunoblot analysis of the fusion proteins P450 IID6/β-gal with LKM-positive sera; type: binding, human; conditions: eleven sera tested; FIG. 2
Description: b) Expression and immunoblot analysis of the fusion proteins obtained from the various constructs of pEX-627-LKMHC5 and pEX-627-LKMC1/BamHI.
as §1, §2, §3, §4
Rat liver and human liver microsomes and β-galactosidase, expressed by the plasmid pEX-627 not comprising the P450 DNA insert, are included on the same gels as positive controls and negative control respectively.

Molecule: GMTHMTSRDIGVQGFRI [Peptide of formula IX, Gly-Met-Thr-His-Met-Thr-Ser-Arg-Asp-Ile-Gly-Val-Gln-Gly-Phe-Arg-Ile]
- number of patients whose sera recognize the peptide [1]: 1 patients/15

Molecule: LLTEHRMTWDPAQPPRDL [Peptide of formula II, Leu-Leu-Thr-Glu-His-Arg-Met-Thr-Trp-Asp-Pro-Ala-Gln-Pro-Pro-Arg-Asp-Leu]
- recognized by LKM-positive sera when tested by immunoblotting [2]: recognized by all the LKM-positivesera
- recognized by LKM-positive sera when tested by ELISA [1]: recognized by all the LKM-positivesera

Molecule: EKPYPEHFLDAQGHFVKPEA [Peptide of formula X, amino acids 410-429 of human cytochrome P450 IID6]
- positive response in patients suffering from autoimmune hepatitis (anti-LKM autoantibodies): positive response in most patients
- number of patients whose sera recognize the peptide [1]: 2 patients/15

Molecule: MILHPDVQRRVQQEIDDVIGQVRRPEMGDQA [Peptide of formula Va]
- positive response in patients suffering from autoimmune hepatitis (anti-LKM autoantibodies): positive response in most patients
- number of patients whose sera recognize the peptide [1]: 8 patients/15

B1: LKMC1/BamHI: fusion protein from EcoRI-BamHI fragment of LKMC1, cDNA clone encoding rat cytochrome P450 db2, in plasmid pEX-627 (protein)
chain: MGLLIGDDLWAVVIFTAIFLLLVDLVHRHKFWTAHYPPGPVPLPGLGNLLQVDFENMPYSLYKLRSRYGDVFSLQIAWKPVVVINGLKAVRELLVTYGEDTADRPLLPIYNHLGYGNKSKGVVLAPYGPEWREQRRFSVSTLRDFGVGKKSLEQWVTEEAGHLCDTFAKEAEHPFNPSILLSKAVSNVIASLVYARRFEYEDPFFNRMLKTLKESFGEDTGFMAEVLNAIPILLQIPGLPGKVFPKLNSFIALVDKMLIEHKKSWD
- recognition of fusion protein by LKM-positive sera on the immunoblots [3]: None of the sera of the patients tested recognizes
